According to patent publication US9695155B2, “Herbicidal substituted pyrimidinyloxy benzene compounds” (E. I. DU PONT DE NEMOURS AND COMPANY, priority 2013, dated 2017):
Like-named read-outs stand apart in the source and are kept apart here.

Tests used:
[1] = tested on: barnyardgrass; assay: Test A postemergence; type: in vivo, Echinochloa crus-galli; details: for pest or weed control at 125 g/ha / pest or weed control at 500 g/ha: Echinochloa crus-galli, post-emergence, 240 h; for pest or weed control at 125 g/ha: read-out: Plant response rating, Barnyardgrass; for pest or weed control at 500 g/ha: read-out: Plant response rating Barnyardgrass
Method in brief: (§1)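 Visual injury scored 0–100 (100 = complete control) against untreated controls about 10 days after treatment in a greenhouse. Test chemicals, formulated with surfactant in non-phytotoxic solvent, were sprayed on soil preemergence or on 2-10 cm, one- to two-leaf plants postemergence.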

[2] = tested on: giant foxtail; assay: Test A preemergence; type: in vivo, Setaria faberii; details: for pest or weed control at 125 g/ha / pest or weed control at 500 g/ha: Setaria faberi, pre-emergence, 240 h
Method in brief: as §1

[3] = tested on: velvetleaf; assay: Test A postemergence; type: in vivo, Abutilon theophrasti; details: for pest or weed control at 500 g/ha: read-out: Plant response rating Velvetleaf
Method in brief: as §1

[4] = tested on: sedge, umbrella; assay: Test B flooded paddy test; type: in vivo, Cyperus difformis; details: Flood, 250 g ai/ha, 0 to 100 scale where 0 is no effect and 100 is complete control; for pest or weed control at 250 g/ha: Cyperus difformis, read-out: Plant response rating, Sedge, Umbrella
Method in brief: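 Plants at 2-leaf stage; pots flooded to 3 cm above soil and compound applied directly into paddy water, depth held throughout. After 13 to 15 days in greenhouse, visual rating versus controls on 0 (no effect) to 100 (complete control) scale.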

[5] = tested on: wheat; assay: Test A postemergence; type: in vivo, Triticum aestivum; details: for plant injury at 125 g/ha / plant injury at 500 g/ha: Triticum aestivum, post-emergence, 240 h; for plant injury at 125 g/ha: read-out: Plant response rating, Wheat; for plant injury at 500 g/ha: read-out: Plant response rating Wheat
Method in brief: as §1

[6] = tested on: yellow nutsedge; assay: Test C postemergence; type: in vivo, Cyperus esculentus; details: for Plant response rating (0 to 100), Nutsedge, Yellow: postemergence; for Plant response rating, Nutsedge, Yellow: Postemergence, scale 0 to 100 (0 no effect, 100 complete control)
Description: (§2) Seeds of plant species selected from blackgrass (Alopecurus myosuroides), Italian ryegrass (Lolium multiflorum), wheat, winter (winter wheat, Triticum aestivum), galium (catchweed bedstraw, Galium aparine), corn (Zea mays), large (Lg) crabgrass (Digitaria sanguinalis), giant foxtail (Setaria faberii), johnsongrass (Sorghum halepense), lambsquarters (Chenopodium album), morningglory (Ipomoea coccinea), yellow nutsedge (Cyperus esculentus), pigweed (Amaranthus retroflexus), ragweed (common ragweed, Ambrosia elatior), soybean (Glycine max), barnyardgrass (Echinochloa crus-galli), oilseed rape (Brassica napus), waterhemp (common waterhemp, Amaranthus rudis), kochia (Kochia scoparia), wild oat (Avena fatua), surinam grass (Brachiaria decumbens), foxtail, green (green foxtail, Setaria viridis), goosegrass (Eleusine indica), bromegrass, downy (downy bromegrass, Bromus tectorum), nightshade (eastern black nightshade, Solanum ptycanthum), cocklebur (common cocklebur, Xanthium strumarium), cupgrass, woolly (woolly cupgrass, Eriochloa villosa), bermudagrass (Cynodon dactylon), sunflower, (common oilseed sunflower, Helianthus annuus), Russian thistle (Salsola kali), and velvetleaf (Abutilon theophrasti) were planted into a blend of loam soil and sand and treated preemergence with test chemicals formulated in a non-phytotoxic solvent mixture which included a surfactant.
(§3) At the same time, plants selected from these crop and weed species and also barley, winter (winter barley, Hordeum vulgare), windgrass (Apera spica-venti), chickweed (common chickweed, Stellaria media), deadnettle (henbit deadnettle, Lamium amplexicaule), and canarygrass (littleseed canarygrass, Phalaris minor) were planted in pots containing Redi-Earth® planting medium (Scotts Company, 14111 Scottslawn Road, Marysville, Ohio 43041) comprising spaghnum peat moss, vermiculite, wetting agent and starter nutrients and treated with postemergence applications of test chemicals formulated in the same manner. Plants ranged in height from 2 to 18 cm (1- to 4-leaf stage) for postemergence treatments. Treated plants and controls were maintained in a greenhouse for 13 to 15 days, after which time all species were compared to controls and visually evaluated. Plant response ratings, summarized in Table C, are based on a scale of 0 to 100 where 0 is no effect and 100 is complete control. A dash (-) response means no test result.

[7] = tested on: morningglory; assay: Test C postemergence; type: in vivo, Ipomoea coccinea; details: for Plant response rating (0 to 100), Morningglory: postemergence; for Plant response rating, Morningglory: Postemergence, scale 0 to 100 (0 no effect, 100 complete control)
Description: as §2, §3

[8] = tested on: wheat, winter; assay: Test C postemergence; type: in vivo, Triticum aestivum; details: for Plant response rating (0 to 100), Wheat: postemergence; for Plant response rating, Wheat: Postemergence, scale 0 to 100 (0 no effect, 100 complete control)
Description: as §2, §3

[9] = tested on: morningglory; assay: Test C preemergence; type: in vivo, Ipomoea coccinea
Description: as §2, §3

[10] = tested on: ragweed; assay: Test C postemergence; type: in vivo, Ambrosia elatior; details: for Plant response rating (0 to 100), Ragweed: postemergence; for Plant response rating, Ragweed: Postemergence, scale 0 to 100 (0 no effect, 100 complete control)
Description: as §2, §3

[11] = tested on: giant foxtail; assay: Test C postemergence; type: in vivo, Setaria faberii; details: for Plant response rating (0 to 100), Foxtail, Giant: postemergence; for Plant response rating, Foxtail, Giant: Postemergence, scale 0 to 100 (0 no effect, 100 complete control)
Description: as §2, §3

[12] = tested on: corn; assay: Test C preemergence; type: in vivo, Zea mays
Description: as §2, §3

[13] = tested on: velvetleaf; assay: Test C preemergence; type: in vivo, Abutilon theophrasti
Description: as §2, §3

[14] = 125 g ai/ha, 0 to 100 scale where 0 is no effect and 100 is complete control
[15] = 500 g ai/ha, 0 to 100 scale, 0 no effect, 100 complete control
[16] = 500 g ai/ha, 0 to 100 scale, 0 no effect, 100 complete control, approx. 10 days
[17] = 500 g ai/ha, 0 to 100 scale, 0 no effect, 100 complete control, approx. 10 days, read-out: Foxtail, Giant plant response rating
[18] = Abutilon theophrasti, post-emergence, 240 h, 500 g ai/ha, 0 to 100 scale, 0 no effect, 100 complete control
[19] = 62 g ai/ha, preemergence, scale 0 (no effect) to 100 (complete control)
[20] = 125 g ai/ha, preemergence, scale 0 (no effect) to 100 (complete control)
[21] = 250 g ai/ha, preemergence, scale 0 (no effect) to 100 (complete control)
[22] = Preemergence, 31 g ai/ha, scale 0 to 100, 0 no effect, 100 complete control

Clc1cnc(Oc2ccccc2-n2cc(Cl)cn2)nc1 [Compound 3]
Plant response rating, Barnyardgrass [1, 14]: 10 | Plant response rating, Barnyardgrass [1, 15]: 90 | Foxtail, Giant plant response rating [2, 14]: 90 | Foxtail, Giant plant response rating [2, 16]: 100 | Plant response rating, Velvetleaf [3, 14]: 100 | Plant response rating, Velvetleaf [3, 15]: 100 | Plant response rating, Sedge, Umbrella [4]: 75 | Plant response rating, Wheat [5, 14]: 0 | Plant response rating, Wheat [5, 15]: 0

FC(F)(F)c1ccn(-c2ccccc2Oc2ncc(Cl)cn2)n1 [Compound 2, 5-chloro-2-[2-[3-(trifluoromethyl)-1H-pyrazol-1-yl]phenoxy]pyrimidine]
pest or weed control at 125 g/ha [1, 14]: 30% | pest or weed control at 500 g/ha [1, 15]: 70% | pest or weed control at 125 g/ha ([2]; 125 g ai/ha, 0 to 100 scale where 0 is no effect and 100 is complete control, read-out: Foxtail, Giant plant response rating): 80% | pest or weed control at 500 g/ha [2, 17]: 100% | pest or weed control at 500 g/ha [3, 18]: 60% | pest or weed control at 250 g/ha [4]: 0% | plant injury at 125 g/ha [5, 14]: 0% | plant injury at 500 g/ha [5, 15]: 0%

FC(F)(F)c1cnn(-c2ccccc2Oc2ncc(Cl)cn2)c1 [Compound 16]
Plant response rating, Barnyardgrass [1, 14]: 60 | Plant response rating, Barnyardgrass [1, 15]: 100 | Foxtail, Giant plant response rating [2, 14]: 100 | Foxtail, Giant plant response rating [2, 16]: 100 | Plant response rating (0 to 100), Nutsedge, Yellow ([6]; 125 g ai/ha): 5 | Plant response rating (0 to 100), Nutsedge, Yellow ([6]; 250 g ai/ha): 20 | Plant response rating, Nutsedge, Yellow ([6]; 31 g ai/ha, 13 to 15 days): 5 | Plant response rating, Nutsedge, Yellow ([6]; 62 g ai/ha): 5 | Plant response rating (0 to 100), Morningglory ([7]; 125 g ai/ha): 80 | Plant response rating (0 to 100), Morningglory ([7]; 250 g ai/ha): 85 | Plant response rating, Morningglory ([7]; 31 g ai/ha, 13 to 15 days): 65 | Plant response rating, Morningglory ([7]; 62 g ai/ha): 80 | Plant response rating, Velvetleaf [3, 14]: 100 | Plant response rating, Velvetleaf [3, 15]: 100 | Plant response rating (0 to 100), Wheat ([8]; 125 g ai/ha): 35 | Plant response rating (0 to 100), Wheat ([8]; 250 g ai/ha): 35 | Plant response rating, Wheat ([8]; 31 g ai/ha, 13 to 15 days): 5 | Plant response rating, Wheat ([8]; 62 g ai/ha): 15 | Morningglory plant response rating [9, 19]: 75 | Morningglory plant response rating [9, 20]: 90 | Morningglory plant response rating [9, 21]: 98 | Plant response rating, Morningglory [9, 22]: 10 | Plant response rating (0 to 100), Ragweed ([10]; 125 g ai/ha): 40 | Plant response rating (0 to 100), Ragweed ([10]; 250 g ai/ha): 90 | Plant response rating, Ragweed ([10]; 31 g ai/ha, 13 to 15 days): 15 | Plant response rating, Ragweed ([10]; 62 g ai/ha): 30 | Plant response rating (0 to 100), Foxtail, Giant ([11]; 125 g ai/ha): 15 | Plant response rating (0 to 100), Foxtail, Giant ([11]; 250 g ai/ha): 85 | Plant response rating, Foxtail, Giant ([11]; 31 g ai/ha, 13 to 15 days): 5 | Plant response rating, Foxtail, Giant ([11]; 62 g ai/ha): 10 | Plant response rating, Sedge, Umbrella [4]: 90 | Corn plant response rating [12, 19]: 15 | Corn plant response rating [12, 20]: 25 | Corn plant response rating [12, 21]: 35 | Plant response rating, Corn [12, 22]: 0 | Velvetleaf plant response rating [13, 19]: 100 | Velvetleaf plant response rating [13, 20]: 100 | Velvetleaf plant response rating [13, 21]: 100 | Plant response rating, Velvetleaf [13, 22]: 98 | Plant response rating, Wheat [5, 14]: 70 | Plant response rating, Wheat [5, 15]: 80

FC(F)(F)c1cnn(-c2ccccc2Oc2ncc(Br)cn2)c1 [Compound 18, 5-bromo-2-[2-[4-(trifluoromethyl)-1H-pyrazol-1-yl]phenoxy]pyrimidine]
pest or weed control at 125 g/ha [1, 14]: 60% | pest or weed control at 500 g/ha [1, 15]: 100% | pest or weed control at 125 g/ha ([2]; 125 g ai/ha, 0 to 100 scale where 0 is no effect and 100 is complete control, read-out: Plant response rating, Foxtail, Giant): 100% | pest or weed control at 500 g/ha [2, 17]: 100% | pest or weed control at 125 g/ha ([3]; Abutilon theophrasti, post-emergence, 240 h, 125 g ai/ha, 0 to 100 scale where 0 is no effect and 100 is complete control, read-out: Plant response rating, Velvetleaf): 100% | pest or weed control at 500 g/ha [3, 18]: 100% | pest or weed control at 62 g/ha ([9]; Ipomoea, pre-emergence, 62 g ai/ha, preemergence, scale 0 (no effect) to 100 (complete control), read-out: Morningglory plant response rating): 30% | pest or weed control at 125 g/ha ([9]; Ipomoea, pre-emergence, 125 g ai/ha, preemergence, scale 0 (no effect) to 100 (complete control), read-out: Morningglory plant response rating): 80% | pest or weed control at 250 g/ha ([9]; Ipomoea, pre-emergence, 250 g ai/ha, preemergence, scale 0 (no effect) to 100 (complete control), read-out: Morningglory plant response rating): 98% | pest or weed control at 31 g/ha ([9]; Ipomoea, pre-emergence, Preemergence, 31 g ai/ha, scale 0 to 100, 0 no effect, 100 complete control, read-out: Plant response rating, Morningglory): 10% | pest or weed control at 250 g/ha [4]: 90% | plant injury at 62 g/ha ([12]; Zea mays, pre-emergence, 62 g ai/ha, preemergence, scale 0 (no effect) to 100 (complete control), read-out: Corn plant response rating): 10% | plant injury at 125 g/ha ([12]; Zea mays, pre-emergence, 125 g ai/ha, preemergence, scale 0 (no effect) to 100 (complete control), read-out: Corn plant response rating): 10% | plant injury at 250 g/ha ([12]; Zea mays, pre-emergence, 250 g ai/ha, preemergence, scale 0 (no effect) to 100 (complete control), read-out: Corn plant response rating): 35% | Corn plant response rating (crop injury, 0 = no effect, 100 = complete kill) at 31 g/ha ([12]; Zea mays, pre-emergence, Preemergence, 31 g ai/ha, scale 0 to 100, 0 no effect, 100 complete control): 0% | pest or weed control at 62 g/ha ([13]; Abutilon theophrasti, pre-emergence, 62 g ai/ha, preemergence, scale 0 (no effect) to 100 (complete control), read-out: Velvetleaf plant response rating): 100% | pest or weed control at 125 g/ha ([13]; Abutilon theophrasti, pre-emergence, 125 g ai/ha, preemergence, scale 0 (no effect) to 100 (complete control), read-out: Velvetleaf plant response rating): 100% | pest or weed control at 250 g/ha ([13]; Abutilon theophrasti, pre-emergence, 250 g ai/ha, preemergence, scale 0 (no effect) to 100 (complete control), read-out: Velvetleaf plant response rating): 100% | pest or weed control at 31 g/ha ([13]; Abutilon theophrasti, pre-emergence, Preemergence, 31 g ai/ha, scale 0 to 100, 0 no effect, 100 complete control, read-out: Plant response rating, Velvetleaf): 60% | plant injury at 125 g/ha [5, 14]: 50% | plant injury at 500 g/ha [5, 15]: 50%
